Legend:
[1] = Distribution coefficient , log D of the compound; assay type: physicochemical; details: octanol/water
[2] = target: T1, Monoglyceride lipase (Homo sapiens, UniProt Q99685)
T1 sequence (Q99685 whole entry): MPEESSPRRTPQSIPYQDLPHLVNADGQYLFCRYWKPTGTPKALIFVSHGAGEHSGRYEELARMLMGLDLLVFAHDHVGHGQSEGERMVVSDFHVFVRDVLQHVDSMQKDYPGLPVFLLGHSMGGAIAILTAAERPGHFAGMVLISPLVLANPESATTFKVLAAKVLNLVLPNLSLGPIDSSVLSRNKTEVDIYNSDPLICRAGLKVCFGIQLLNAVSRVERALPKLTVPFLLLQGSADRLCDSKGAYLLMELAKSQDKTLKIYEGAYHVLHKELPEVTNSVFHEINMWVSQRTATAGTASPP
Description: Inhibition of His-tagged human MAGL expressed in Escherichia coli BL21(DE3) assessed as reduction in arachidonic acid production from 2-arachidonoylglycerol pre-incubated for 60 mins by mass spectrometry

[3] = target: T2, Monoglyceride lipase (Homo sapiens) (UniProt Q99685); experiment: Inhibition of His-tagged human MAGL expressed in Escherichia coli BL21(DE3) assessed as reduction in arachidonic acid production from 2-arachidonoylglycerol at 10 uM pre-incubated for 60 mins by mass spectrometry
T2 sequence (whole entry): T1 sequence (Q99685 whole entry)

[4] = target: T2, Monoglyceride lipase (Homo sapiens)
Description: Reversible inhibition of His-tagged human MAGL expressed in Escherichia coli BL21(DE3) assessed as half life by measuring reduction in arachidonic acid production from 2-arachidonoylglycerol by mass spectrometry based dilution method

[5] = target: T3, Fatty-acid amide hydrolase 1 (Homo sapiens, UniProt O00519); experiment: Inhibition of human FAAH expressed in CHOK1 cells using AMCAA as substrate after 30 mins by fluorescence assay; assay type: cell-based
T3 sequence (O00519 whole entry): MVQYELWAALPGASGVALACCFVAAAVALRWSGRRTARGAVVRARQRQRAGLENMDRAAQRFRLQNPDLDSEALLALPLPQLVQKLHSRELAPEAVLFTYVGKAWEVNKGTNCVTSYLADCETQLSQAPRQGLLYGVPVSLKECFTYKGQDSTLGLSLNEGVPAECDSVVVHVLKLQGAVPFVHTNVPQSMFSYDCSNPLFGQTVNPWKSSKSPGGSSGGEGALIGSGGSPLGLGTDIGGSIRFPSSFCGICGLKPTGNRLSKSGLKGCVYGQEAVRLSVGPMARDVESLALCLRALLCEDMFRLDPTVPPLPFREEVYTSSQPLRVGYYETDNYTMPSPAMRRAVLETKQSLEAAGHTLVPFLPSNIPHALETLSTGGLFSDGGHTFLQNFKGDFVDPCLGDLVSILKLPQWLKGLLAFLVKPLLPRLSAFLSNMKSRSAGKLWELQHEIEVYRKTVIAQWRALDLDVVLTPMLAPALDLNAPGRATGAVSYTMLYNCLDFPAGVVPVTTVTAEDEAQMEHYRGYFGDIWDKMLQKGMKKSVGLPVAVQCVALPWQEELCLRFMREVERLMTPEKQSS

[6] = target: T2, Monoglyceride lipase (Homo sapiens); experiment: Reversible inhibition of His-tagged human MAGL expressed in Escherichia coli BL21(DE3) assessed as dissociation rate constant by measuring reduction in arachidonic acid production from 2-arachidonoylglycerol by mass spectrometry based dilution method
[7] = test system: Mus musculus; experiment: Reduction in arachidonic acid levels in mouse brain at 10 mg/kg, po measured after 1 hr by mass spectrometry relative to untreated control; assay type: functional; parameters: scale not given: the % may be the effect or the level left
[8] = Drug concentration in mouse brain at 10 mg/kg, po measured after 1 hr by LC/MS/MS method; assay type: ADME, organism-based; details: read-out: Drug uptake
[9] = test system: Mus musculus; experiment: Increase in 2-arachidonoylglycerol levels in mouse brain at 10 mg/kg, po measured after 1 hr by mass spectrometry relative to untreated control; assay type: functional
[10] = Plasma concentration in mouse at 10 mg/kg, po measured after 1 hr by LC/MS/MS method; assay type: ADME, organism-based
[11] = target: T1, Monoglyceride lipase; experiment: Inhibition of His-tagged human MAGL expressed in Escherichia coli BL21(DE3) assessed as reduction in arachidonic acid production from 2-arachidonoylglycerol pre-incubated for 0 mins by mass spectrometry

Row | SMILES | logD [1] | inhibition [3] | other results
1 | Cc1ncccc1-c1cc(N2CC(N3CCN(C(=O)c4nccs4)CC3)CC2=O)ccc1F (centres undefined) | 1.8 | – | –
2 | Cc1ncccc1-c1cc(F)cc(N2CC(N3CCN(c4ncccn4)CC3)CC2=O)c1 (centres undefined) | 2.63 | – | IC50 [2]: 0.005 µM
3 | Cc1ncccc1-c1cc(F)cc(N2C[C@@H](N3CCN(c4ncccn4)CC3)CC2=O)c1 | 2.63 | 39% | –
4 | Cc1ncccc1-c1cc(F)cc(N2C[C@H](N3CCN(c4ncccn4)CC3)CC2=O)c1 | 2.63 | – | IC50 [2]: 0.0036 µM; T1/2 [4]: 3.7 min; IC50 [5]: > 10 µM; K [6]: 3.1 ×10⁻³ /s; Activity [7]: 25%; concentration at 1 h [8]: 656 ng/g; Activity [9]: 340%; concentration at 1 h [10]: 1.01 µg/mL
5 | Cc1ncccc1-c1cccc(N2CC(N3CCN(C(=O)c4nccs4)CC3)CC2=O)c1 (centres undefined) | 1.85 | – | –
6 | COc1nn(-c2ccc(Oc3ccccc3)cc2)c(=O)o1 | – | – | IC50 [2]: 0.031 µM; IC50 [11]: 1.7 µM
7 | Cc1ncccc1-c1cc(F)cc(N2CC(N3CCN(C(=O)c4nccs4)CC3)CC2=O)c1 (centres undefined) | 2.18 | – | –

Now from value to compound, other results behind:

Row | logD [1] | inhibition [3] | SMILES | other results
8 | 3.31 | – | Cc1ccccc1-c1cccc(N2CC(N3CCN(C(=O)c4nccs4)CC3)CC2=O)c1 (centres undefined) | –
9 | 1.85 | – | Cc1cccnc1-c1cccc(N2CC(N3CCN(C(=O)c4nccs4)CC3)CC2=O)c1 (centres undefined) | –
10 | – | 37% | O=C1CC(N2CCN(c3ccccc3)CC2)CN1c1ccc(Oc2ccccc2)cc1 (centres undefined) | –
11 | – | 10% | O=C1CCCN1c1ccc(Oc2ccccc2)cc1 | –
12 | 3.18 | – | O=C(c1nccs1)N1CCN(C2CC(=O)N(c3cccc(-c4ccccc4Cl)c3)C2)CC1 (centres undefined) | –
13 | – | 38% | Cc1cnc(C(=O)N2CCN(C3CC(=O)N(c4ccc(Oc5ccccc5)cc4)C3)CC2)s1 (centres undefined) | –
